The values below come from PubChem BioAssay (NCI).

What is called GI50 is the concentration that inhibits growth by half. The term TGI denotes the concentration at which net growth stops.

Molecules are shown by their SMILES.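 How tested: cells in 96-well plates exposed to compound for 48 hours at five concentrations. The concentration for 50% growth inhibition is given as GI50. TGI denotes the concentration required for complete inhibition of growth.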

Test in all cases: DTP human tumour cell line panel, 48 h
Assay [1] has as its system DU-145 prostate.
Assay [2] concerns CAKI-1 renal.
Assay [3] has as its system OVCAR-8 ovarian.
Assay [4] relates to EKVX NSCLC.
Assay [5] relates to HL-60(TB) leukemia.
Assay [6] relates to T-47D breast.
Assay [7] deals with MOLT-4 leukemia.
The subject of assay [8] is NCI/ADR-RES ovarian.
Assay [9] relates to MALME-3M melanoma.
The subject of assay [10] is SF-539 CNS.

With `N#CC1=C(N)Oc2c(ccc3ccccc23)C1c1cc2ccccc2n2nnnc12` (centres undefined), the GI50 was 2.77 µM in assay [1]; 5.74 µM in [2]; 2.85 µM in assay [3]; 5.8 µM in [4]; 0.26 µM in assay [5]; 1.83 µM in assay [6]. Besides, the GI50 in assay [7] is 0.557 µM; in assay [8] it was 0.534 µM; in assay [9], 0.852 µM. Moreover, the TGI in [1] is > 100 µM; in assay [2] it was > 100 µM; in assay [3] it was > 100 µM; in assay [4], > 100 µM; in [5], 16.7 µM; in assay [6], > 100 µM. For the same compound, the TGI in assay [7] was > 100 µM; in assay [8], 46.6 µM; in assay [9], > 100 µM.

As for `COc1ccc([C@@H]2[C@@H](Oc3ccccc3)C(=O)N2c2cc(OC)c(OC)c(OC)c2)cc1F`, the GI50 is 0.0735 µM in assay [10]; 0.378 µM in assay [1]; 0.189 µM in assay [3]; 0.465 µM in [4]; 0.24 µM in assay [5]; 0.345 µM in assay [7]. Besides, the concentration for 50% growth inhibition (GI50) in assay [8] was 0.0949 µM; in [9], > 100 µM. For the same compound, the TGI is 0.709 µM in assay [10]; > 100 µM in [1]; > 100 µM in assay [3]; > 100 µM in assay [4]; 0.609 µM in assay [5]; > 100 µM in assay [7]. Further, the total growth inhibition concentration (TGI) in assay [8] and in assay [9] was > 100 µM each time.

For the compound `c1cc(OCCCCCOc2cccc(-c3nc4ccccc4[nH]3)c2)cc(-c2nc3ccccc3[nH]2)c1`, the GI50 in assay [10] is 5.08 µM; in [1], 3.27 µM; in assay [2], 1.79 µM; in assay [3], 2.53 µM; in [4], 2.21 µM; in assay [6], 0.458 µM. Moreover, the GI50 in [8] is 1.99 µM; in [9] it was 1.87 µM. The total growth inhibition concentration (TGI) in assay [10] was > 100 µM; in assay [1], > 100 µM; in assay [2], 8.65 µM; in [3], 6.15 µM; in [4], 6.97 µM; in [6] it was 3.18 µM. Further, the TGI was determined as 7.91 µM in assay [8] and 5.02 µM in assay [9].

Take `COc1ccc(-c2c(Nc3ccccn3)nc3c(C4=CCCCC4)c(-c4ccccc4)[nH]n3c2=O)cc1`: the GI50 in [10] was 2.81 µM; in assay [1], 3.62 µM; in assay [2], 2.48 µM; in [3], 3.47 µM; in assay [4], 2.97 µM; in [6], 2.22 µM. The GI50 in assay [8] was 2.57 µM; in assay [9], 3.93 µM. Further, the concentration for total growth inhibition (TGI) in assay [10] is 18.6 µM; in assay [1], > 100 µM; in assay [2], 15.1 µM; in assay [3], > 100 µM; in assay [4], 36.9 µM; in [6], 17.3 µM. Further, the total growth inhibition concentration (TGI) in assay [8] was > 100 µM; in assay [9], 60.2 µM.

With `COc1cc(NC(=O)COc2ccccc2)c(C(N)=O)cc1OC`, the GI50 in assay [10] is 0.563 µM; in [1] it was 0.914 µM; in assay [2] it was 3.8 µM; in assay [3], 3.01 µM; in assay [5], 0.293 µM; in assay [6], 3.46 µM. Also, the results for the GI50 in assay [7], in [8] and in [9] were 2.91 µM, 0.487 µM and 4 µM, respectively. The total growth inhibition concentration (TGI) in assay [10] was 3.59 µM; in [1], > 100 µM; in assay [2], > 100 µM; in [3], > 100 µM; in assay [5] it was 7.25 µM; in assay [6], > 100 µM. Besides, the TGI in [7] was > 100 µM; in assay [8] it was 11.7 µM; in assay [9], > 100 µM.

On to `CC1(C)CC2=NO[Se]3=C2C(=NO3)C1`, for which the TGI in assay [10] worked out at 5.75 µM; in assay [1], 10.4 µM; in [2] it was 11.4 µM; in assay [3], 16.4 µM; in [4], 9.68 µM; in [5], 5.08 µM. The concentration for total growth inhibition (TGI) in [6] came out at 24.7 µM; in [7], 9.41 µM.

On to `O=C1NC(=O)N(S(=O)(=O)c2cc(C(=O)Nc3ccc(Cl)cc3)c(Cl)cc2S)S(=O)(=O)N1`, for which the GI50 in assay [10] is 19.7 µM; in assay [1], 16.5 µM; in assay [2], 19 µM; in [3], 24.8 µM; in assay [4], 18.3 µM; in assay [6], 6.65 µM. In addition, the GI50 is 19.4 µM in [7] and 28.1 µM in assay [8]. Moreover, the concentration for total growth inhibition (TGI) was 39.3 µM in assay [10]; 31.2 µM in assay [1]; 35.4 µM in assay [2]; 64.4 µM in assay [3]; 38.9 µM in [4]; 55.7 µM in [6]. Moreover, the TGI in assay [7] came out at 47.6 µM; in assay [8] it was 85.6 µM.

`O=C1c2ccccc2N1C(=O)c1ccccc1[N+](=O)[O-]`: the TGI in [10], in assay [1], in assay [2], in assay [3], in [4] and in assay [6] was > 100 µM in each case. The TGI in assay [7] and in assay [9] was > 100 µM each time.

On to `CCOC(=O)C#Cc1c(C(=O)OCC)nnn1[C@@H]1O[C@H](COC)[C@@H](OC)[C@H]1OC`, for which the GI50 in assay [1] was 10.6 µM; in assay [2] it was 1.74 µM; in assay [3], 6.94 µM; in assay [4], 16.3 µM; in assay [5], 1.98 µM; in assay [6] it was 2.47 µM. Also, the GI50 is 1.92 µM in [7], 15.9 µM in [8] and 1.95 µM in assay [9]. For the same compound, the TGI in [1] was determined as 22.4 µM; in assay [2] it was 3.14 µM; in assay [3], 21.7 µM; in assay [4] it was 32.9 µM; in assay [5], 5.41 µM; in assay [6], 7.39 µM. Further, the concentration for total growth inhibition (TGI) in assay [7] was 4.39 µM; in [8] it was 37.3 µM; in [9], 3.9 µM.
